The test system of the test is RAW264.7 cells. The experiment in a line: Introduction of SOD1 fusion proteins into RAW264.7 cells. The format is cell-based. The settings on record: 0.5 uM, 2 hours. As for the experimental part: SOD1, which is widely known as an antioxidant enzyme, was fused with a cell-penetrating peptide, and the cell-penetrating ability and activity maintenance were evaluated using RAW264.7 cells. The recombinant proteins SOD1, SOD1-TAT, and SOD1-RMAD1 were treated at the same concentration of 0.5 uM to RAW264.7 cells for 2 hours.

The values below come from patent US20240207162A1, “CARGO MOLECULE TRANSDUCTION DOMAIN RMAD1, VARIANT THEREOF, RECOMBINANT CARGO MOLECULE, AND METHOD FOR TRANSDUCING CARGO MOLECULE USING SAME” (REMEDI CO., LTD., priority 2021, published 2024).

Turning to “SOD1: antioxidant enzyme, recombinant control protein”, the “level of cell penetration” value is “did not penetrate cells”.
